Experimental data: patent US20160022761A1, “DEREPRESSION OF IMMUNITY IN ONCOLOGICAL AND VIROLOGICAL CONDITIONS BY HIGH MOBILITY GROUP BOX 1 DERIVED PEPTIDES” (priority 2014, published 2016)

System: human Treg cells
Assay: Inhibitory activity of human Treg cells in in vitro assays of T cell stimulation (anti-CD3 or MLR, tritiated thymidine proliferation)
Assay type: cell-based
Details: all treatment groups (0.01 ug/ml, 0.1 ug/ml and 1 ug/ml), 72 hours culture; compared to controls that received scrambled peptide (FFSAFLSEC)
Experimental: Isolation of human CD4+, CD4+CD25+, and CD4+CD25− T cells was performed from PBMC by using human Treg isolation kits (Miltenyi Biotec), respectively, according to the manufacturer's instructions. The purity of the resulting T cell populations was confirmed to be >95% by flow cytometry.
Inhibitory activity of human Treg cells was measured in in vitro assays of T cell stimulation. CD25-depleted spleen cells (10^5 cells/well) from human PBMC (105) were stimulated in vitro with the following: anti-human CD3 Ab (BD Pharmingen) or human PBMC (105) from a different donor (to induce a MLR). Cultures were maintained for 72 hours in the presence of SAFFLFCSE peptide at concentrations of 0.01 ug/ml, 0.1 ug/ml and 1 ug/ml. Tritiated thymidine was added at a concentration of 1 microcurie per well for the last 12 hours of culture. Scintillation counting was used to assess proliferation.

SAFFLFCSE
inhibition of T regulatory cell suppressive activity: > 80%
